ChEMBL document CHEMBL1146848, “The development of novel 1,2-dihydro-pyrimido[4,5-c]pyridazine based inhibitors of lymphocyte specific kinase (Lck)” (Bioorg Med Chem Lett, 2006)
≈ marks a conversion by molar mass, not a printed value.

How the values were obtained:
[1] = Aqueous solubility of the compound; format: physicochemical; conditions: buffer
[2] = molecular target: Tyrosine-protein kinase Lck (Homo sapiens, UniProt P06239); assay: Inhibition of human recombinant Lck in presence of 10 mM ATP
Sequence of Tyrosine-protein kinase Lck (P06239 whole entry): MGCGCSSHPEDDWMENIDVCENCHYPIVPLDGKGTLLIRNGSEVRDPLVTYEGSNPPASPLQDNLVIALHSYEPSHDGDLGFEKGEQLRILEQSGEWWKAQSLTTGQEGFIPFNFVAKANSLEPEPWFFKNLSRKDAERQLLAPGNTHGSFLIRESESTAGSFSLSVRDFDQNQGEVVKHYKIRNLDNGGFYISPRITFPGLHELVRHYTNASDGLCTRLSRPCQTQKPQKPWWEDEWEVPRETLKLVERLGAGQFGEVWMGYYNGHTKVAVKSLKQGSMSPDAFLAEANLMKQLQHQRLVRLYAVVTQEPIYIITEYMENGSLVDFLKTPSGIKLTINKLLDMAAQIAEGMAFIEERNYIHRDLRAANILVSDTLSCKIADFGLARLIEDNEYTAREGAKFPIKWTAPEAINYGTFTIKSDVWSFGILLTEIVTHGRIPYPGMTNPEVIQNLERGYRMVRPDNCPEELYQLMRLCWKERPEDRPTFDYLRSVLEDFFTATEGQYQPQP

[3] = molecular target: Proto-oncogene tyrosine-protein kinase Src (Homo sapiens, UniProt P12931); assay: Inhibition of human recombinant Src in presence of 10 mM ATP
Sequence of Proto-oncogene tyrosine-protein kinase Src (P12931 2-536 limits assumed): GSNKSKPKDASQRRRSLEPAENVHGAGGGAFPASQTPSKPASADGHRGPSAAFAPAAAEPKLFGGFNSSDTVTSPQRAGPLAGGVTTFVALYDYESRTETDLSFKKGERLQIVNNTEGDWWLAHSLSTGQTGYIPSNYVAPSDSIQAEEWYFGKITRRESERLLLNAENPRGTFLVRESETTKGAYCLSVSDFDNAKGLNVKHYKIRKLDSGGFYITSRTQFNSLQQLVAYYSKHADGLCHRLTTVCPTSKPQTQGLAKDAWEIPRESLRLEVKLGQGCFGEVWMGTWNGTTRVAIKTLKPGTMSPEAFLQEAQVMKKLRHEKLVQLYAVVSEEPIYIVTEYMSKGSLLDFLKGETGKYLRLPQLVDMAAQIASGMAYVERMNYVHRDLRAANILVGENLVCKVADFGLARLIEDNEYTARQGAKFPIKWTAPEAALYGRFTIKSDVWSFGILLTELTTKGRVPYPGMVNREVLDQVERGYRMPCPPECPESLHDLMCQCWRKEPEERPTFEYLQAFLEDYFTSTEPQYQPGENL

Jurkat = assay: Inhibition of anti-human CD3 epsilon-stimulated IL2 production in Jurkat E6-1 T cells; format: functional, cell-based
[4] = molecular target: Tyrosine-protein kinase HCK (Homo sapiens, UniProt P08631); assay: Inhibition of human recombinant Hck in presence of 10 mM ATP
Sequence of Tyrosine-protein kinase HCK (P08631 whole entry): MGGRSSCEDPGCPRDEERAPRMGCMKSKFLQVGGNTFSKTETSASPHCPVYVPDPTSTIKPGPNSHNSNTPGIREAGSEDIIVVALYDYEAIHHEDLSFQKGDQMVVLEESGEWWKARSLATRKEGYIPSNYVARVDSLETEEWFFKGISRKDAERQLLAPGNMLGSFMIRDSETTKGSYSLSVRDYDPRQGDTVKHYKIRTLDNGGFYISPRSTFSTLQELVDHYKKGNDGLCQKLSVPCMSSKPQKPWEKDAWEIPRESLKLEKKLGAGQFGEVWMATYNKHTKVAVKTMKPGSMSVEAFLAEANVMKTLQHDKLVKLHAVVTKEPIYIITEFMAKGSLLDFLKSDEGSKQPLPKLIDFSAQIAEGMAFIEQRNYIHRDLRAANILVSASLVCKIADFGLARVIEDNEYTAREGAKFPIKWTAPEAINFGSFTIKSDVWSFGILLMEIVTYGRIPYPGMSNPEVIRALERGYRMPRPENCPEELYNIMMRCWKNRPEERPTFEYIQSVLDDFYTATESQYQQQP

[5] = Half life in rat; format: ADME, organism-based; conditions: in vivo
[6] = Bioavailability in rat; format: ADME, organism-based; conditions: in vivo
[7] = Metabolic stability in Sprague-Dawley rat liver microsome after 1 hr; format: ADME; conditions: liver microsomes, read-out: Stability

Row | Structure (SMILES) | solubility [1] [µg/mL] | IC50 ([2]; read-out: IC50) [nM] | also measured
1 | COc1cccc(Nc2ncc3c(n2)N2CCC(=O)N2C(c2c(Cl)cccc2Cl)=C3)c1 | – | 179 | –
2 | CN(C)c1ccc(Nc2ncc3c(n2)N2CCC(=O)N2C(c2cc(O)ccc2Cl)=C3)cc1 | 1 (≈ 2.23 µM) | 10 | IC50 [3]: 273 nM; IC50 (Jurkat): 0.546 nM; IC50 [4]: 546 nM
3 | CN1C(c2c(Cl)cccc2Cl)=Cc2cnc(Nc3ccc(F)cc3)nc2N1C | – | 3200 | –
4 | CNc1ncc2c(n1)N1CCC(=O)N1C(c1c(Cl)cccc1Cl)=C2 | – | 2810 | –
5 | CN1C(c2ccccc2Cl)=Cc2cnc(Nc3ccc(F)cc3)nc2N1C | – | – | IC50 [2]: Not Active
6 | COC(=O)c1ccc(Nc2ncc3c(n2)N2CCC(=O)N2C(c2c(Cl)cccc2Cl)=C3)cc1 | – | 143 | –
7 | CN1CCN(c2ccc(Nc3ncc4c(n3)N3CCC(=O)N3C(c3cc(O)ccc3Cl)=C4)cc2)CC1 | 11 (≈ 21.8 µM) | 47 | IC50 [3]: 764 nM; IC50 (Jurkat): 2.1 nM; IC50 [4]: 456 nM
8 | CCN(CC)CCOc1ccc(Nc2ncc3c(n2)N2CCC(=O)N2C(c2c(Cl)cccc2Cl)=C3)cc1 | 33.8 (≈ 62.7 µM) | 2 | half-life [5]: 1.5 h; IC50 [3]: 3 nM; IC50 (Jurkat): 3.21 nM; bioavailability [6]: 14%; IC50 [4]: 48 nM; remaining at 1 h [7]: > 84%
9 | CN(C)c1ccc(Nc2ncc3c(n2)N2CCC(=O)N2C(c2c(Cl)cccc2Cl)=C3)cc1 | 5 (≈ 10.7 µM) | 26 | –
10 | COc1ccc(Cl)c(C2=Cc3cnc(Nc4ccc(N(C)C)cc4)nc3N3CCC(=O)N23)c1 | 7 (≈ 15.1 µM) | 2840 | –

Second part, led by results:

Row | solubility [1] [µg/mL] | IC50 ([2]; read-out: IC50) [nM] | Structure (SMILES) | also measured
11 | 5 (≈ 11 µM) | 71 | COc1ccc(Nc2ncc3c(n2)N2CCC(=O)N2C(c2c(Cl)cccc2Cl)=C3)cc1 | –
12 | 2 (≈ 4.52 µM) | 124 | O=C1CCN2c3nc(Nc4ccc(F)cc4)ncc3C=C(c3c(Cl)cccc3Cl)N12 | –
13 | – | 7270 | COc1ccccc1Nc1ncc2c(n1)N1CCC(=O)N1C(c1c(Cl)cccc1Cl)=C2 | –
14 | 10 (≈ 20.2 µM) | 21 | CN(C)CCc1ccc(Nc2ncc3c(n2)N2CCC(=O)N2C(c2c(Cl)cccc2Cl)=C3)cc1 | –
15 | 7 (≈ 16 µM) | 4800 | COc1ccc(Cl)c(C2=Cc3cnc(Nc4ccc(F)cc4)nc3N3CCC(=O)N23)c1 | –
16 | 1 (≈ 2.02 µM) | 43 | CCN(CC)c1ccc(Nc2ncc3c(n2)N2CCC(=O)N2C(c2c(Cl)cccc2Cl)=C3)cc1 | –
17 | 6 (≈ 11.8 µM) | 3 | O=C1CCN2c3nc(Nc4ccc(N5CCOCC5)cc4)ncc3C=C(c3c(Cl)cccc3Cl)N12 | IC50 [3]: 104 nM; IC50 (Jurkat): 2 nM; IC50 [4]: 160 nM
18 | – | 285 | CCOc1ccc(Nc2ncc3c(n2)N2CCC(=O)N2C(c2c(Cl)cccc2Cl)=C3)cc1 | –
19 | 2 (≈ 4.71 µM) | 182 | O=C1CCN2c3nc(Nc4ccccc4)ncc3C=C(c3c(Cl)cccc3Cl)N12 | –
